Tests used:
Experiment in all cases: relative viability (nuclei count vs DMSO), 5 days (fraction); higher = more cells survive
BMX-IN-1 + Bortezomib = compound: C=CC(=O)Nc1cc(-n2c(=O)ccc3cnc4ccc(-c5ccc(NS(C)(=O)=O)cc5)cc4c32)ccc1C [BMX-IN-1] + CC(C)C[C@H](NC(=O)[C@H](Cc1ccccc1)NC(=O)c1cnccn1)B(O)O [Bortezomib] (partner 0.002 µM)
In short: (§1)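 Relative viability was taken as the ratio of nuclei in treated wells to nuclei in vehicle wells. Lung cancer cell lines in 1536-well plates received compounds by pin tool one day after seeding, either one drug alone or a fixed anchor-drug dose plus five library-drug doses (not always all listed) in √10 steps. Nuclei were counted on 4× images after 5 days of treatment, and values are medians of duplicate plates.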

Ibrutinib + Navitoclax = compound: C=CC(=O)N1CCC[C@@H](n2nc(-c3ccc(Oc4ccccc4)cc3)c3c(N)ncnc32)C1 [Ibrutinib] + CC1(C)CCC(c2ccc(Cl)cc2)=C(CN2CCN(c3ccc(C(=O)NS(=O)(=O)c4ccc(N[C@H](CCN5CCOCC5)CSc5ccccc5)c(S(=O)(=O)C(F)(F)F)c4)cc3)CC2)C1 [Navitoclax] (partner 0.5 µM)
In short: as §1

BMX-IN-1 + Alpelisib = compound: C=CC(=O)Nc1cc(-n2c(=O)ccc3cnc4ccc(-c5ccc(NS(C)(=O)=O)cc5)cc4c32)ccc1C [BMX-IN-1] + Cc1nc(NC(=O)N2CCC[C@H]2C(N)=O)sc1-c1ccnc(C(C)(C)C(F)(F)F)c1 [Alpelisib] (partner 2 µM)
In short: as §1

Ibrutinib + Vorinostat = compound: C=CC(=O)N1CCC[C@@H](n2nc(-c3ccc(Oc4ccccc4)cc3)c3c(N)ncnc32)C1 [Ibrutinib] + O=C(CCCCCCC(=O)Nc1ccccc1)NO [Vorinostat] (partner 1 µM)
In short: as §1

NCI-H2023
relative viability (BMX-IN-1 + Bortezomib; first compound 0.02 µM): 1.21 | relative viability (BMX-IN-1 + Bortezomib; first compound 0.2 µM): 1.19 | relative viability (BMX-IN-1 + Bortezomib; first compound 0.6325 µM): 1.27 | relative viability (BMX-IN-1 + Bortezomib; first compound 2 µM): 1.08 | relative viability (Ibrutinib + Navitoclax; first compound 0.005 µM): 1.02 | relative viability (Ibrutinib + Navitoclax; first compound 0.01581 µM): 0.919 | relative viability (Ibrutinib + Navitoclax; first compound 0.05 µM): 0.884 | relative viability (Ibrutinib + Navitoclax; first compound 0.1581 µM): 1.07 | relative viability (Ibrutinib + Navitoclax; first compound 0.5 µM): 0.871 | relative viability (BMX-IN-1 + Alpelisib; first compound 0.02 µM): 0.617 | relative viability (BMX-IN-1 + Alpelisib; first compound 0.2 µM): 0.675 | relative viability (BMX-IN-1 + Alpelisib; first compound 0.6325 µM): 0.686 | relative viability (BMX-IN-1 + Alpelisib; first compound 2 µM): 0.627 | relative viability (Ibrutinib + Vorinostat; first compound 0.005 µM): 0.565 | relative viability (Ibrutinib + Vorinostat; first compound 0.01581 µM): 0.6 | relative viability (Ibrutinib + Vorinostat; first compound 0.05 µM): 0.48 | relative viability (Ibrutinib + Vorinostat; first compound 0.1581 µM): 0.918 | relative viability (Ibrutinib + Vorinostat; first compound 0.5 µM): 0.49

LC-2-ad
relative viability (BMX-IN-1 + Bortezomib; first compound 0.02 µM): 1.02 | relative viability (BMX-IN-1 + Bortezomib; first compound 0.2 µM): 1.28 | relative viability (BMX-IN-1 + Bortezomib; first compound 0.6325 µM): 1.01 | relative viability (BMX-IN-1 + Bortezomib; first compound 2 µM): 1.04 | relative viability (Ibrutinib + Navitoclax; first compound 0.005 µM): 0.408 | relative viability (Ibrutinib + Navitoclax; first compound 0.01581 µM): 0.362 | relative viability (Ibrutinib + Navitoclax; first compound 0.05 µM): 0.535 | relative viability (Ibrutinib + Navitoclax; first compound 0.1581 µM): 0.477 | relative viability (Ibrutinib + Navitoclax; first compound 0.5 µM): 0.402 | relative viability (BMX-IN-1 + Alpelisib; first compound 0.02 µM): 0.915 | relative viability (BMX-IN-1 + Alpelisib; first compound 0.2 µM): 0.962 | relative viability (BMX-IN-1 + Alpelisib; first compound 0.6325 µM): 0.998 | relative viability (BMX-IN-1 + Alpelisib; first compound 2 µM): 0.898 | relative viability (Ibrutinib + Vorinostat; first compound 0.005 µM): 0.74 | relative viability (Ibrutinib + Vorinostat; first compound 0.01581 µM): 0.665 | relative viability (Ibrutinib + Vorinostat; first compound 0.05 µM): 0.706 | relative viability (Ibrutinib + Vorinostat; first compound 0.1581 µM): 0.802 | relative viability (Ibrutinib + Vorinostat; first compound 0.5 µM): 0.775

NCI-H1975
relative viability (BMX-IN-1 + Bortezomib; first compound 0.02 µM): 0.356 | relative viability (BMX-IN-1 + Bortezomib; first compound 0.2 µM): 0.338 | relative viability (BMX-IN-1 + Bortezomib; first compound 0.6325 µM): 0.45 | relative viability (BMX-IN-1 + Bortezomib; first compound 2 µM): 0.433 | relative viability (Ibrutinib + Navitoclax; first compound 0.005 µM): 1.04 | relative viability (Ibrutinib + Navitoclax; first compound 0.01581 µM): 1.14 | relative viability (Ibrutinib + Navitoclax; first compound 0.05 µM): 1.08 | relative viability (Ibrutinib + Navitoclax; first compound 0.1581 µM): 1.09 | relative viability (Ibrutinib + Navitoclax; first compound 0.5 µM): 0.637 | relative viability (BMX-IN-1 + Alpelisib; first compound 0.02 µM): 0.714 | relative viability (BMX-IN-1 + Alpelisib; first compound 0.2 µM): 0.686 | relative viability (BMX-IN-1 + Alpelisib; first compound 0.6325 µM): 0.664 | relative viability (BMX-IN-1 + Alpelisib; first compound 2 µM): 0.592 | relative viability (Ibrutinib + Vorinostat; first compound 0.005 µM): 0.759 | relative viability (Ibrutinib + Vorinostat; first compound 0.01581 µM): 0.556 | relative viability (Ibrutinib + Vorinostat; first compound 0.05 µM): 0.649 | relative viability (Ibrutinib + Vorinostat; first compound 0.1581 µM): 0.792 | relative viability (Ibrutinib + Vorinostat; first compound 0.5 µM): 0.324

HCC-366
relative viability (BMX-IN-1 + Bortezomib; first compound 0.02 µM): 1.88 | relative viability (BMX-IN-1 + Bortezomib; first compound 0.2 µM): 1.78 | relative viability (BMX-IN-1 + Bortezomib; first compound 0.6325 µM): 1.28 | relative viability (BMX-IN-1 + Bortezomib; first compound 2 µM): 1.09 | relative viability (Ibrutinib + Navitoclax; first compound 0.005 µM): 0.986 | relative viability (Ibrutinib + Navitoclax; first compound 0.01581 µM): 0.977 | relative viability (Ibrutinib + Navitoclax; first compound 0.05 µM): 1.06 | relative viability (BMX-IN-1 + Alpelisib; first compound 0.02 µM): 0.704 | relative viability (BMX-IN-1 + Alpelisib; first compound 0.2 µM): 0.575 | relative viability (BMX-IN-1 + Alpelisib; first compound 0.6325 µM): 0.412 | relative viability (BMX-IN-1 + Alpelisib; first compound 2 µM): 0.354 | relative viability (Ibrutinib + Vorinostat; first compound 0.005 µM): 0.396 | relative viability (Ibrutinib + Vorinostat; first compound 0.01581 µM): 0.387 | relative viability (Ibrutinib + Vorinostat; first compound 0.05 µM): 0.306 | relative viability (Ibrutinib + Vorinostat; first compound 0.1581 µM): 0.443 | relative viability (Ibrutinib + Vorinostat; first compound 0.5 µM): 0.404

NCI-H2347
relative viability (BMX-IN-1 + Bortezomib; first compound 0.02 µM): 0.985 | relative viability (BMX-IN-1 + Bortezomib; first compound 0.2 µM): 1.24 | relative viability (BMX-IN-1 + Bortezomib; first compound 0.6325 µM): 1.14 | relative viability (BMX-IN-1 + Bortezomib; first compound 2 µM): 1 | relative viability (Ibrutinib + Navitoclax; first compound 0.005 µM): 0.898 | relative viability (Ibrutinib + Navitoclax; first compound 0.01581 µM): 0.724 | relative viability (Ibrutinib + Navitoclax; first compound 0.05 µM): 0.846 | relative viability (Ibrutinib + Navitoclax; first compound 0.1581 µM): 0.729 | relative viability (Ibrutinib + Navitoclax; first compound 0.5 µM): 0.717 | relative viability (BMX-IN-1 + Alpelisib; first compound 0.02 µM): 1.25 | relative viability (BMX-IN-1 + Alpelisib; first compound 0.2 µM): 1.07 | relative viability (BMX-IN-1 + Alpelisib; first compound 0.6325 µM): 1.16 | relative viability (BMX-IN-1 + Alpelisib; first compound 2 µM): 0.974 | relative viability (Ibrutinib + Vorinostat; first compound 0.005 µM): 0.59 | relative viability (Ibrutinib + Vorinostat; first compound 0.01581 µM): 0.546 | relative viability (Ibrutinib + Vorinostat; first compound 0.05 µM): 0.566 | relative viability (Ibrutinib + Vorinostat; first compound 0.1581 µM): 0.493 | relative viability (Ibrutinib + Vorinostat; first compound 0.5 µM): 0.53

NCI-H2405
relative viability (BMX-IN-1 + Bortezomib; first compound 0.02 µM): 0.989 | relative viability (BMX-IN-1 + Bortezomib; first compound 0.2 µM): 1.1 | relative viability (BMX-IN-1 + Bortezomib; first compound 0.6325 µM): 0.999 | relative viability (BMX-IN-1 + Bortezomib; first compound 2 µM): 1.01 | relative viability (Ibrutinib + Navitoclax; first compound 0.005 µM): 0.923 | relative viability (Ibrutinib + Navitoclax; first compound 0.01581 µM): 0.812 | relative viability (Ibrutinib + Navitoclax; first compound 0.05 µM): 0.731 | relative viability (Ibrutinib + Navitoclax; first compound 0.5 µM): 0.98 | relative viability (BMX-IN-1 + Alpelisib; first compound 0.02 µM): 0.816 | relative viability (BMX-IN-1 + Alpelisib; first compound 0.2 µM): 0.755 | relative viability (BMX-IN-1 + Alpelisib; first compound 0.6325 µM): 0.747 | relative viability (BMX-IN-1 + Alpelisib; first compound 2 µM): 0.766 | relative viability (Ibrutinib + Vorinostat; first compound 0.005 µM): 0.913 | relative viability (Ibrutinib + Vorinostat; first compound 0.01581 µM): 1.12 | relative viability (Ibrutinib + Vorinostat; first compound 0.5 µM): 1.03

HCC-44
relative viability (BMX-IN-1 + Bortezomib; first compound 0.02 µM): 0.902 | relative viability (BMX-IN-1 + Bortezomib; first compound 0.2 µM): 1.06 | relative viability (BMX-IN-1 + Bortezomib; first compound 0.6325 µM): 1.07 | relative viability (BMX-IN-1 + Bortezomib; first compound 2 µM): 0.957 | relative viability (Ibrutinib + Navitoclax; first compound 0.005 µM): 0.977 | relative viability (Ibrutinib + Navitoclax; first compound 0.01581 µM): 0.913 | relative viability (Ibrutinib + Navitoclax; first compound 0.05 µM): 0.935 | relative viability (Ibrutinib + Navitoclax; first compound 0.1581 µM): 0.995 | relative viability (Ibrutinib + Navitoclax; first compound 0.5 µM): 0.919 | relative viability (BMX-IN-1 + Alpelisib; first compound 0.02 µM): 0.869 | relative viability (BMX-IN-1 + Alpelisib; first compound 0.2 µM): 0.905 | relative viability (BMX-IN-1 + Alpelisib; first compound 0.6325 µM): 1.01 | relative viability (BMX-IN-1 + Alpelisib; first compound 2 µM): 0.794 | relative viability (Ibrutinib + Vorinostat; first compound 0.005 µM): 1.21 | relative viability (Ibrutinib + Vorinostat; first compound 0.05 µM): 1.2 | relative viability (Ibrutinib + Vorinostat; first compound 0.1581 µM): 1.2 | relative viability (Ibrutinib + Vorinostat; first compound 0.5 µM): 1.15

NCI-H1666
relative viability (BMX-IN-1 + Bortezomib; first compound 0.02 µM): 0.799 | relative viability (BMX-IN-1 + Bortezomib; first compound 0.2 µM): 0.821 | relative viability (BMX-IN-1 + Bortezomib; first compound 0.6325 µM): 0.823 | relative viability (BMX-IN-1 + Bortezomib; first compound 2 µM): 0.728 | relative viability (Ibrutinib + Navitoclax; first compound 0.005 µM): 0.762 | relative viability (Ibrutinib + Navitoclax; first compound 0.01581 µM): 0.806 | relative viability (Ibrutinib + Navitoclax; first compound 0.05 µM): 0.521 | relative viability (Ibrutinib + Navitoclax; first compound 0.1581 µM): 1.06 | relative viability (Ibrutinib + Navitoclax; first compound 0.5 µM): 0.451 | relative viability (BMX-IN-1 + Alpelisib; first compound 0.02 µM): 1.03 | relative viability (BMX-IN-1 + Alpelisib; first compound 0.2 µM): 1.02 | relative viability (BMX-IN-1 + Alpelisib; first compound 0.6325 µM): 1.13 | relative viability (BMX-IN-1 + Alpelisib; first compound 2 µM): 1.08 | relative viability (Ibrutinib + Vorinostat; first compound 0.005 µM): 0.939 | relative viability (Ibrutinib + Vorinostat; first compound 0.01581 µM): 1.05 | relative viability (Ibrutinib + Vorinostat; first compound 0.05 µM): 1.07 | relative viability (Ibrutinib + Vorinostat; first compound 0.1581 µM): 1.12 | relative viability (Ibrutinib + Vorinostat; first compound 0.5 µM): 0.863

EPLC-272H
relative viability (BMX-IN-1 + Bortezomib; first compound 0.02 µM): 1.28 | relative viability (BMX-IN-1 + Bortezomib; first compound 0.2 µM): 1.09 | relative viability (BMX-IN-1 + Bortezomib; first compound 0.6325 µM): 0.872 | relative viability (BMX-IN-1 + Bortezomib; first compound 2 µM): 0.887 | relative viability (Ibrutinib + Navitoclax; first compound 0.01581 µM): 0.982 | relative viability (Ibrutinib + Navitoclax; first compound 0.05 µM): 1.07 | relative viability (Ibrutinib + Navitoclax; first compound 0.1581 µM): 1.28 | relative viability (Ibrutinib + Navitoclax; first compound 0.5 µM): 0.694 | relative viability (BMX-IN-1 + Alpelisib; first compound 0.02 µM): 0.973 | relative viability (BMX-IN-1 + Alpelisib; first compound 0.2 µM): 1.15 | relative viability (BMX-IN-1 + Alpelisib; first compound 0.6325 µM): 1.08 | relative viability (BMX-IN-1 + Alpelisib; first compound 2 µM): 0.94 | relative viability (Ibrutinib + Vorinostat; first compound 0.005 µM): 0.248 | relative viability (Ibrutinib + Vorinostat; first compound 0.01581 µM): 0.4 | relative viability (Ibrutinib + Vorinostat; first compound 0.05 µM): 0.31 | relative viability (Ibrutinib + Vorinostat; first compound 0.1581 µM): 0.597 | relative viability (Ibrutinib + Vorinostat; first compound 0.5 µM): 0.401
